Structures can show the parent of a compound that is named as a salt. Marks after values point to notes of the source that are not given here.
Key:
[1] = Fluorescence property measurements (absorption/emission spectra); type: physicochemical; set-up: Stokes Shift: unit not given here
Method: The λabs and λem, of the target compounds were measured in aqueous solution (phosphate-buffered saline solution, PBS) at the concentration of 10^−5 M (Table 1).
Fluorescence spectra of all target compounds were determined in PBS and EtOH solutions (Table 1) with a Tecan Infinite 200 Microplate Reader. In all experiments, the excitation and the emission bandpass were set at λ = 5 nm. The emission spectra were obtained from λ = 280 to 850 nm, with excitation set at the appropriate excitation wavelength. Absorption spectra were recorded with a Shimadzu UV-1800 spectrophotometer.

COX-2 = biological target: T1, COX-2 (Homo sapiens, UniProt P35354); assay: COX-2 inhibition, COX (ovine/human) inhibitor screening assay kit; type: biochemical; settings: for COX-2 inhibitory activity (in words): up to 50 µM final concentration
T1 construct: purchased Cayman Chemicals (bought through Sigma-Aldrich) 560131
T1 sequence (P35354 18-604): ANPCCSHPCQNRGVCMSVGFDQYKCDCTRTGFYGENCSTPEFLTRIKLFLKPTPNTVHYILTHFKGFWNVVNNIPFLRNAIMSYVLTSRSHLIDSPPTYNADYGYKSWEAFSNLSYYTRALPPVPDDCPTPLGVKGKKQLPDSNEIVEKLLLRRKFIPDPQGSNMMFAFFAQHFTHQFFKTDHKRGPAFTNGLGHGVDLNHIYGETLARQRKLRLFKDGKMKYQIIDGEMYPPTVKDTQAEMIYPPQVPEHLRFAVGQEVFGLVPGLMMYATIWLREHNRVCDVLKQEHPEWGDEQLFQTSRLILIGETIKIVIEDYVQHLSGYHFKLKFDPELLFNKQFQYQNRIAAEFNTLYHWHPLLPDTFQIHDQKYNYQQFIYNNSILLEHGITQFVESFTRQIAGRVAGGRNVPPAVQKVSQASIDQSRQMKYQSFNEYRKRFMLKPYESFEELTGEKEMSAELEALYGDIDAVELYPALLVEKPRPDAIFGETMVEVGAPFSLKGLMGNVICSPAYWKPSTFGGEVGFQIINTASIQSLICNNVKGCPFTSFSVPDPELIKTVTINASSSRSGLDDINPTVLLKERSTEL
Method: (§1) Cell culture reagents were purchased from Euroclone (Milan, Italy). COX (ovine/human) inhibitor screening assay kit (Catalog No. 560131, Cayman Chemicals, Ann Arbor, MI, USA) was purchased from Sigma-Aldrich, Burlington, MA, USA. […] The other reagents were purchased from Sigma-Aldrich, Burlington, MA, USA.
(§2) The COX-1/2 inhibition screening experiments were carried out according to the manufacturer’s instructions. The plate was incubated for 60 min at r.t. under shaking and read with the Tecan Infinite 200 Microplate Reader at λ = 405 nm.
(§3) The graph between percent inhibition of the enzyme and corresponding concentration of the compound provided IC50 values for the probe compounds.

COX-1 = biological target: T2, COX-1 (Ovis aries, UniProt P05979); assay: COX-1 inhibition, COX (ovine/human) inhibitor screening assay kit; type: biochemical; settings: for inhibition at 50 µM: at 50 µM compound final concentration, read-out: COX-1 % inhib.
T2 construct: purchased Cayman Chemicals (bought through Sigma-Aldrich) 560131
T2 sequence (P05979 25-600): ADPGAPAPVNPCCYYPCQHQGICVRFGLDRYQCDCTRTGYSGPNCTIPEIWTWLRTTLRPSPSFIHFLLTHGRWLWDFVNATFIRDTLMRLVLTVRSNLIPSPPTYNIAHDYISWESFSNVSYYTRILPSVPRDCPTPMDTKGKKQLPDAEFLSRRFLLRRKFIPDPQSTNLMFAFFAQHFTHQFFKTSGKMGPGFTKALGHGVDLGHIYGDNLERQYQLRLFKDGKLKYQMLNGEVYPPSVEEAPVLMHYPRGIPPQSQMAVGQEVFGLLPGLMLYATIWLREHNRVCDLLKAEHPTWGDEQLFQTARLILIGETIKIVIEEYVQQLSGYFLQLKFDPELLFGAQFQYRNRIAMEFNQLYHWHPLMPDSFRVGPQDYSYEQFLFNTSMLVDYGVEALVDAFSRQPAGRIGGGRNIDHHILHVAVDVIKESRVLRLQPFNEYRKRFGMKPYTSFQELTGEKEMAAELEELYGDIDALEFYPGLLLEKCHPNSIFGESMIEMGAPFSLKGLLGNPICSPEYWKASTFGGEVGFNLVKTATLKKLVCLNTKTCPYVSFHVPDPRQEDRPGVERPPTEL
Method: as §1, §2, §3

[2] = Solubility in PBS (remark); type: physicochemical
Source text: Despite of the solvent, the Stokes shift was very low with this fluorophore.

For `COc1ccc(-c2noc(CC(=O)Nc3ccc(NC(=O)CCCCCCCCCCNS(=O)(=O)c4cccc5c(N(C)C)cccc45)cc3)c2-c2ccc(OC)cc2)cc1` [Compound 9], the “Stokes Shift” value ([1]; PBS solution, 10^−5 M) was 222, the λabs ([1]; PBS solution, 10^−5 M) was 274 nm and the λem ([1]; PBS solution, 10^−5 M) was 496 nm. The melting point was 140 to 143 °C, the IC50 (COX-2) was over 50 µM and the IC50 (COX-1) was 0.7 µM. The “SI (selectivity index)” value (COX-1) was over 71 and the inhibition at 50 µM (COX-1) was 83%.

In the case of `COc1ccc(-c2noc(CC(=O)NCCCCCCNS(=O)(=O)c3cccc4c(N(C)C)cccc34)c2-c2ccc(OC)cc2)cc1` [Compound 6a], the “Stokes Shift” value ([1]; ethanol (10^−5 M)) is reported as 273, the λabs ([1]; ethanol (10^−5 M)) is reported as 248 ^b nm and the λem ([1]; ethanol (10^−5 M)) is reported as 521 ^b nm. For the same compound, the melting point was 66 to 69 °C, the IC50 (COX-2) was over 50 µM and the IC50 (COX-1) was 12 µM. The “SI (selectivity index)” value (COX-1) was over 4 and the inhibition at 50 µM (COX-1) was 74%.

In the case of `COc1ccc(-c2noc(CC(=O)NCCCCNS(=O)(=O)c3cccc4c(N(C)C)cccc34)c2-c2ccc(OC)cc2)cc1` [Compound 3a, 2-[3,4-Bis(4-methoxyphenyl)isoxazol-5-yl]-N-{4-[(5-dimethylaminonaphthalene)-1-sulfonamido]butyl}acetamide], the “Stokes Shift” value ([1]; PBS solution, 10^−5 M) is reported as 264, the λabs ([1]; PBS solution, 10^−5 M) is reported as 230 nm and the λem ([1]; PBS solution, 10^−5 M) is reported as 494 nm. The melting point was 69 to 71 °C, the IC50 (COX-2) was over 50 µM and the “COX-2 inhibitory activity (in words)” value (COX-2) was “almost inactive”. The “COX-1 inhibitory activity (in words)” value (COX-1) was “almost inactive”, the IC50 (COX-1) was over 50 µM and the inhibition at 50 µM (COX-1) was 45%.

With `COc1ccc(-c2noc(CC(=O)NCCCCNc3ccc([N+](=O)[O-])c4nonc34)c2-c2ccc(OC)cc2)cc1` [Compound 13a, 2-(3,4-Bis(4-methoxyphenyl)isoxazol-5-yl)-N-(4-((7-nitrobenzo[c][1,2,5]oxadiazol-4-yl)amino)butyl)acetamide] the “Stokes Shift” value ([1]; PBS solution, 10^−5 M) was 82, the λabs ([1]; PBS solution, 10^−5 M) was 482 nm and the λem ([1]; PBS solution, 10^−5 M) was 564 nm. The melting point was 165 °C (dec.), the IC50 (COX-2) was over 50 µM and the IC50 (COX-1) was over 50 µM. It also gave an inhibition at 50 µM (COX-1) of 0%.

In the case of `COc1ccc(-c2noc(CC(=O)NCCCCCCCCCCCCNc3ccc([N+](=O)[O-])c4nonc34)c2-c2ccc(OC)cc2)cc1` [Compound 13c, 2-(3,4-Bis(4-methoxyphenyl)isoxazol-5-yl)-N-(12-((7-nitrobenzo[c][1,2,5]oxadiazol-4-yl)amino)dodecyl)acetamide], the “Stokes Shift” value ([1]; PBS solution, 10^−5 M) is reported as 55, the λabs ([1]; PBS solution, 10^−5 M) is reported as 495 nm and the λem ([1]; PBS solution, 10^−5 M) is reported as 550 nm. The IC50 (COX-2) was over 50 µM, the IC50 (COX-1) was over 50 µM and the inhibition at 50 µM (COX-1) was 28%.

With `COc1ccc(-c2noc(CC(=O)NCCCCCCNc3ccc([N+](=O)[O-])c4nonc34)c2-c2ccc(OC)cc2)cc1` [Compound 13b, 2-(3,4-Bis(4-methoxyphenyl)isoxazol-5-yl)-N-(6-((7-nitrobenzo[c][1,2,5]oxadiazol-4-yl)amino)hexyl)acetamide] the “Stokes Shift” value ([1]; PBS solution, 10^−5 M) was 64, the λabs ([1]; PBS solution, 10^−5 M) was 490 nm and the λem ([1]; PBS solution, 10^−5 M) was 554 nm. It also gave an IC50 (COX-2) of over 50 µM, an IC50 (COX-1) of over 50 µM and an inhibition at 50 µM (COX-1) of 26%.

For `CCCN1C(=O)c2cccc3c(NCCCCCCNC(=O)Cc4onc(-c5ccc(OC)cc5)c4-c4ccc(OC)cc4)ccc(c23)C1=O` [Compound 17a, 2-(3,4-Bis(4-methoxyphenyl)isoxazol-5-yl)-N-(6-((1,3-dioxo-2-propyl-2,3-dihydro-1H-benzo[de]isoquinolin-6-yl)amino)hexyl)acetamide], the “Stokes Shift” value ([1]; PBS solution, 10^−5 M) was 96, the λabs ([1]; PBS solution, 10^−5 M) was 450 nm and the λem ([1]; PBS solution, 10^−5 M) was 546 nm. The melting point was 110 to 111 °C, the IC50 (COX-2) was over 50 µM and the “COX-2 inhibitory activity (in words)” value (COX-2) was “almost inactive”. The IC50 (COX-1) was 0.08 µM, the “SI (selectivity index)” value (COX-1) was over 625 and the inhibition at 50 µM (COX-1) was 51%.

With `CCCN1C(=O)c2cccc3c(Nc4ccc(NC(=O)Cc5onc(-c6ccc(OC)cc6)c5-c5ccc(OC)cc5)cc4)ccc(c23)C1=O` [Compound 17b, 2-(3,4-Bis(4-methoxyphenyl)isoxazol-5-yl)-N-(4-((1,3-dioxo-2-propyl-2,3-dihydro-1H-benzo[de]isoquinolin-6-yl)amino)phenyl)acetamide] the “Stokes Shift” value ([1]; ethanol (10^−5 M)) was 92, the λabs ([1]; ethanol (10^−5 M)) was 450 ^b nm and the λem ([1]; ethanol (10^−5 M)) was 542 ^b nm. The melting point was 112 to 115 °C, the “solubility in PBS” value [2] was “low solubility” and the IC50 (COX-2) was over 50 µM. For the same compound, the “COX-2 inhibitory activity (in words)” value (COX-2) was “almost inactive”, the IC50 (COX-1) was 0.15 µM and the “SI (selectivity index)” value (COX-1) was over 333. It also gave an inhibition at 50 µM (COX-1) of 49%.

In the case of `COc1ccc(-c2noc(CC(=O)Nc3ccc(NS(=O)(=O)c4cccc5c(N(C)C)cccc45)cc3)c2-c2ccc(OC)cc2)cc1` [Compound 3b, 2-[3,4-Bis(4-methoxyphenyl)isoxazol-5-yl]-N-{4-[(5-dimethylaminonaphthalene)-1-sulfonamido]phenyl}acetamide], the “Stokes Shift” value ([1]; PBS solution, 10^−5 M) is reported as 154, the λabs ([1]; PBS solution, 10^−5 M) is reported as 360 nm and the λem ([1]; PBS solution, 10^−5 M) is reported as 514 nm. The melting point was 120 to 122 °C, the IC50 (COX-2) was over 50 µM and the IC50 (COX-1) was 0.05 µM. The “SI (selectivity index)” value (COX-1) was over 1000 and the inhibition at 50 µM (COX-1) was 44%.

With `CCN1/C(=C/C=C/C=C/C=C/C2=[N+](CCCCCC(=O)NCCCCNC(=O)Cc3onc(-c4ccc(OC)cc4)c3-c3ccc(OC)cc3)c3ccc4ccccc4c3C2(C)C)C(C)(C)c2c1ccc1ccccc21` (as salt: chloride) [23 (MSA14), 3-(6-(4-(2-(3,4-Bis(4-methoxyphenyl)isoxazole-5-yl)acetamido)butyl)amino-6-oxohexyl)-2-[7-(1,3-dihydro-1,1-dimethyl-3-ethyl-2H-benz[e]indolin-2-yl-idene)-1,3,5-heptatrienyl]-1,1-dimethyl-3-(6-carboxilato-hexyl)-1H-benz[e]indolium chloride] the melting point was 220 °C (dec.).

For `COc1ccc(-c2noc(CC(=O)NCCCCCCCCCCCCNS(=O)(=O)c3cccc4c(N(C)C)cccc34)c2-c2ccc(OC)cc2)cc1` [Compound 6b, 2-[3,4-Bis(4-methoxyphenyl)-5-yl]-N-{4-[(5-dimethylaminonaphthalene)-1-sulfonamido]dodecyl}acetamide], the “Stokes Shift” value ([1]; PBS solution, 10^−5 M) was 222, the λabs ([1]; PBS solution, 10^−5 M) was 270 nm and the λem ([1]; PBS solution, 10^−5 M) was 492 nm. For the same compound, the melting point was 126 to 129 °C, the IC50 (COX-2) was over 50 µM and the IC50 (COX-1) was 0.1 µM. The “SI (selectivity index)” value (COX-1) was over 500 and the inhibition at 50 µM (COX-1) was 71%.

With `COc1ccc(-c2noc(CC(=O)Nc3ccc(-c4ccc(NS(=O)(=O)c5cccc6c(N(C)C)cccc56)cc4)cc3)c2-c2ccc(OC)cc2)cc1` [Compound 3c, 2-[3,4-Bis(4-methoxyphenyl)isoxazol-5-yl]-N-{4-[(5-dimethylaminonaphthalene)-1-sulfonamido]biphenyl}acetamide] the “Stokes Shift” value ([1]; PBS solution, 10^−5 M) was 217, the λabs ([1]; PBS solution, 10^−5 M) was 287 nm and the λem ([1]; PBS solution, 10^−5 M) was 504 nm. For the same compound, the melting point was 240 to 241 °C, the IC50 (COX-2) was over 50 µM and the IC50 (COX-1) was 0.06 µM. The “SI (selectivity index)” value (COX-1) was over 833 and the inhibition at 50 µM (COX-1) was 71%.
